The test system of assay [1] is anti-tumor agent-induced hand-foot syndrome. In words: Comparison of different mechanism compounds in preventing sorafenib-induced hand-foot syndrome in rats (Table 6). The format is in vivo. Particulars: Sorafenib 80 mg/kg once a day, Days 15. The procedure:
After the rats (about 200 g) were acclimated for one week, they were divided into groups of 10 and then subjected to gavage administration experiments. The anti-tumor agent (the anti-tumor agent modeled by sorafenib) was dissolved in a mixed solution of Cremophor EL:ethanol=1:1, and diluted to the required concentration with PBS (diluted about 3 times with PBS solution) before gavage administration. After gavage, the hind paws of the rats were treated with ointments of different mechanisms (NO-releasing agent group, NO-releasing agent combined with clinical drug group, NSAID group), while the control group was treated with a blank ointment. After the application of the ointment, the rats were placed in a fixed cylinder for 4 hours. After 4 hours, the rats were released, and the residual drugs in the application site were wiped off with clean water, and the rats were returned to the cage. Different treatment groups were only applied once a day. Gavage and ointment application were repeated every day until the end of the experiment.
Table 6 lists the animal experimental combinations of various anti-tumor agents and ointments from different treatment groups, as well as the corresponding experimental results (where the value in the control rate column=the incidence rate of hand-foot syndrome in the blank group−the incidence rate of hand-foot syndrome in the treatment group).

The next assay relates to HUVEC cells. In words: CCK-8 cell viability: alleviation of proliferative toxicity of anti-tumor agents on HUVEC cells (Tables 7-1, 7-2). The format is cell-based. Particulars: Homo sapiens, 24 h, NO-NSAID 100 μM, percentage increase in viable cells vs anti-tumor agent alone, read-out: Response rate % (average). How it is done:
The cultured HUVEC cells were digested the suspended, counted, and seed into a 96-well plate with 5,000-10,000 cells per well. The wells are divided into the following groups: blank control group, anti-tumor agent group, anti-tumor agent+NO-NSAID group, anti-tumor agent solvent group, NO-NSAID control group. Wherein each well of each group contained a basic medium, and the final liquid volume contained in each well was about 100 μL. The grouping situation was as follows: • 1) Blank control group: no solution was added except normally replacing the medium; • 2) Anti-tumor agent group: added the anti-tumor agent solution (the final concentration was shown in Table 7-1 and Table 7-2, the solvent of the anti-tumor agent solution was DMSO); • 3) Anti-tumor agent+NO-NSAID group: added the anti-tumor agent solution and the NO-NSAID solution (the final concentrations of anti-tumor agent and NO-NSAID were shown in Table 7-1 and Table 7-2, and according to the solubility of NO-NSAID, the solvent of NO-NSAID solution was selected as ethanol or sterile water, and minor volume differences in each group were adjusted by added the corresponding solvent); • 4) Anti-tumor agent solvent group: an equal volume of DMSO as contained in the corresponding anti-tumor agent solution in Group 2) was added; • 5) NO-NSAID control group: the same volume and type of solvent (for example, ethanol or sterile water) corresponding to the NO-NSAID contained in group 3) was added.
The anti-tumor agent solvent group was not involved in data processing and was only used as a reference for evaluating experimental system error. The NO-NSAID solvent control group was used for data correction to eliminate the influence of the solvent on the results.
After culturing for 24-48 hours, the Cell Counting Kit-8 (CCK-8) detection kit (C0037, Shanghai Beyotime Biotechnology Co., Ltd., Beyotime Biotechnology) was used to determine the cell viability. This allows for the calculation of the proliferative toxicity of anti-tumor agent on cell and the mitigating effect of NO-NSAID on proliferative toxicity. The results were statistically analyzed and plotted using GraphPad Prism 6.0 software and t test.

Assay [2] has as its system hand-foot syndrome induced by anti-tumor agents. In words: Prevention of hand-foot syndrome induced by anti-tumor agents in rats, NO-NSAID ointment on hind paws (Table 2-2). The format is in vivo, SD rats. Particulars: Rattus norvegicus, topical, 120 h, Sorafenib 80 mg/kg once a day, Days 5, read-out: Control rate. The source says:
A rat animal model was constructed, and the anti-tumor agents shown in Table 2-2 were respectively administered to 8-week-old female SD rats by daily oral gavage. […] Therefore, rats serve as an excellent animal model for simulating side effects (such as hand-foot syndrome) caused by anti-tumor agents.
After the rats (about 200 g) were fed and adapted for one week, they were divided into a NO-NSAID group and a control group, with 10 rats in each group, and a gavage administration test was conducted. The various anti-tumor agents were dissolve in a mixed solution of Cremophor EL:ethanol=1:1. The anti-tumor agent solution were diluted with PBS to the required concentration (about 3 times with PBS solution) before gavage administration. After gavage, an ointment containing NO-NSAID was applied to the hind paws of the rats, while the control group was applied with a blank ointment. After application, the rats were placed in a fixed cylinder for 4 hours. After 4 hours, the rats were released and the residual ointment was wiped off with clean water, then the rats were returned to the cage. The gavage frequency of inhibitors was shown in Table 2-2, and NO-NSAID was only applied once a day. The gavage and application operations were repeated daily until the end of the experiment.
Table 2-2 lists the animal experimental combinations of various anti-tumor agents and NO-NSAID ointments, as well as the corresponding experimental results (wherein the value in the control rate column=the hand-foot syndrome incidence rate in the blank group−the hand-foot syndrome incidence rate in the treatment group).

Read-outs that look alike come from different tables or passages of the source.

Consider `CC(=O)Oc1ccccc1C(=O)O` [Acetylsalicylic acid], for which the Control rate in assay [1] (ointment 1.00% wt) was 14.29%.
For `COc1ccc2cc(C(C)C(=O)OCC(CO[N+](=O)O)C[N+](=O)[O-])ccc2c1` (centres unmarked) [Compound A9], the activation at 100 µM was 32% in the assay with HUVEC cells (Afatinib (10 μM)); 58% in the assay on HUVEC cells (Anlotinib (5 μM)); 62% in the assay with HUVEC cells (Apatinib (10 μM)); 45% with HUVEC cells (Axitinib (10 μM)); 0% in the assay with HUVEC cells (Cabozantinib (5 μM)); 35% in the assay with HUVEC cells (Dabrafenib (10 μM)). The activation at 100 µM in the assay on HUVEC cells (Dacomitinib (5 μM)) worked out at 39%; in the assay with HUVEC cells (Encorafenib (5 μM)) it was 15%; in the assay with HUVEC cells (Erdafitinib (10 μM)), 42%; in the assay on HUVEC cells (Everolimus (5 μM)) it was 7%; in the assay with HUVEC cells (Famitinib (5 μM)), 33%; in the assay with HUVEC cells (Fruquintinib (10 μM)) it was 56%. Moreover, the activation at 100 µM is 40% with HUVEC cells (Gefitinib (10 μM)); 29% in the assay on HUVEC cells (Infigratinib (15 μM)); 40% in the assay with HUVEC cells (Lapatinib (5 μM)); 43% in the assay with HUVEC cells (Lenvatinib (10 μM)); 42% in the assay with HUVEC cells (Olmutinib (10 μM)); 40% in the assay on HUVEC cells (Regorafenib (5 μM)). The activation at 100 µM in the assay on HUVEC cells (Selumetinib (5 μM)) amounted to 36%; in the assay on HUVEC cells (Sorafenib (5 μM)) it was 48%; in the assay on HUVEC cells (Sunitinib (5 μM)), 16%; with HUVEC cells (Vemurafenib (5 μM)), 39%. The responders at 1 % in assay [2] (ointment 1% wt) came to 28.6%. The responders at 5 % in assay [2] (ointment 5% wt) was determined as 33.3%.
In the case of `CC(C(=O)OCC(CO[N+](=O)[O-])O[N+](=O)[O-])c1ccc(-c2ccccc2)c(F)c1` (centres unmarked) [Compound A10], the activation at 100 µM with HUVEC cells (Afatinib (10 μM)) was 56%; in the assay with HUVEC cells (Anlotinib (5 μM)), 27%; in the assay on HUVEC cells (Apatinib (10 μM)), 58%; with HUVEC cells (Axitinib (10 μM)), -7%; in the assay with HUVEC cells (Cabozantinib (5 μM)), 49%; in the assay with HUVEC cells (Dabrafenib (10 μM)), 42%. In addition, the activation at 100 µM with HUVEC cells (Dacomitinib (5 μM)) was 37%; in the assay with HUVEC cells (Encorafenib (5 μM)) it was 33%; in the assay on HUVEC cells (Erdafitinib (10 μM)), 23%; with HUVEC cells (Everolimus (5 μM)), 21%; in the assay on HUVEC cells (Famitinib (5 μM)), 49%; with HUVEC cells (Fruquintinib (10 μM)), 59%. In addition, the activation at 100 µM with HUVEC cells (Gefitinib (10 μM)) amounted to 40%; in the assay with HUVEC cells (Infigratinib (15 μM)) it was 32%; with HUVEC cells (Lapatinib (5 μM)) it was 32%; in the assay with HUVEC cells (Lenvatinib (10 μM)), 57%; in the assay on HUVEC cells (Olmutinib (10 μM)) it was 48%; in the assay on HUVEC cells (Regorafenib (5 μM)), 48%. The activation at 100 µM was 46% in the assay on HUVEC cells (Selumetinib (5 μM)), 13% with HUVEC cells (Sorafenib (5 μM)), 21% in the assay with HUVEC cells (Sunitinib (5 μM)) and 63% in the assay on HUVEC cells (Vemurafenib (5 μM)).
In the case of `CC(C)Cc1ccc(C(C)C(=O)O)cc1` (centres unmarked) [Ibuprofen], in assay [1] (ointment 2.00% wt), the Control rate was determined as 0%.
For the molecule `COc1ccc2cc([C@H](C)C(=O)O)ccc2c1` [Naproxen], the Control rate in assay [1] (ointment 2.50% wt) was found to be 16.67%.
Regarding `O=[N+]([O-])OCC(CO[N+](=O)[O-])O[N+](=O)[O-]` [Nitroglycerin], in assay [1] (ointment 0.20% wt), the Control rate turned out to be 60%.

For the origin of these results see patent US20250170090A1, “METHOD FOR PREVENTING OR TREATING DISEASE OR DISORDER ASSOCIATED WITH ANTINEOPLASTIC AGENT” (ONQUALITY PHARMACEUTICALS CHINA LTD., priority 2022, published 2025).
